Drawing on PubChem BioAssay (NCI), this text covers GI50 and TGI for nine compounds.

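Interpolation was linear, between the two tested concentrations surrounding the appropriate level; five concentrations were tested over 48 hours in 96-well plates. At the GI50, growth is halved. TGI is the concentration that stops growth completely.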 Where only a bound is given, the exact number is not on record here.

Holding throughout (test): inhibition of tumour cell growth, NCI panel, 48 h
For experiment [1], the system named is COLO 205 colon.
In experiment [2] the test system is EKVX NSCLC.
For experiment [3], the system named is HOP-62 NSCLC.
Experiment [4] has as its system HOP-92 NSCLC.
The subject of experiment [5] is MOLT-4 leukemia.
In experiment [6] the test system is OVCAR-4 ovarian.
Experiment [7] concerns OVCAR-8 ovarian.
The subject of experiment [8] is RPMI-8226 leukemia.
Experiment [9] deals with SF-295 CNS.
For experiment [10], the system named is SN12C renal.

Regarding `O=S(=O)(NCCNc1cc(-c2cn(-c3ccccc3)nc2-c2cccc(O)c2)ccn1)c1ccc(Br)cc1`, the GI50 in experiment [1] is 1.86 µM; in [2], 2.76 µM; in experiment [3], 2.35 µM; in experiment [4] it was 2 µM; in [5], 2.21 µM; in [6] it was 2.32 µM. The GI50 in experiment [7] was 3.47 µM; in [8], 2.21 µM; in experiment [9] it was 1.88 µM; in [10] it was 2.14 µM. Also, the TGI in experiment [1] was 3.81 µM; in experiment [2] it was 19.1 µM; in experiment [3], 5.99 µM; in experiment [4], 5.06 µM; in experiment [5], 5.98 µM; in experiment [6], 13.7 µM. Also, the TGI in [7] turned out to be 12.6 µM; in [8] it was 5.73 µM; in experiment [9] it was 3.94 µM; in [10] it was 4.78 µM.
On to `CN1CCN(Cc2ccc(NC(=O)c3cccc(C#Cc4c(N)ncc5ccc(F)cc45)c3)cc2C(F)(F)F)CC1`, for which the GI50 was 0.737 µM in experiment [1]; 0.879 µM in experiment [2]; 0.795 µM in [3]; 0.349 µM in experiment [4]; 0.681 µM in experiment [5]; 0.511 µM in [6]. The GI50 was 1.03 µM in experiment [7], 1.03 µM in experiment [8], 0.917 µM in [9] and 0.663 µM in experiment [10]. Also, the TGI in experiment [1] was determined as 1.66 µM; in [2], 1.95 µM; in [3], 1.65 µM; in experiment [4], 1.3 µM; in experiment [5] it was 1.63 µM; in experiment [6] it was 1.77 µM. Also, the TGI in experiment [7] was found to be 2.56 µM; in experiment [8], 2.59 µM; in experiment [9], 1.78 µM; in experiment [10], 1.44 µM.
As for `CNC(=S)N(C1CCCCC1)C1CCCCC1`, the TGI in [1], in [2], in experiment [3], in experiment [4], in experiment [5] and in experiment [6] was greater than 100 µM in each case. The TGI in experiment [7], in experiment [8], in [9] and in experiment [10] was greater than 100 µM each time.
For the compound `CC(C)c1cc(C(=O)[O-])c(O)c(C(C)C)c1.CC(C)c1cc(C(=O)[O-])c(O)c(C(C)C)c1.CC(C)c1cc(C(=O)[O-])c(O)c(C(C)C)c1.CC(C)c1cc(C(=O)[O-])c(O)c(C(C)C)c1.CC(C)c1cc(C(=O)[O-])c(O)c(C(C)C)c1.CC(C)c1cc(C(=O)[O-])c(O)c(C(C)C)c1.[Cu+2].[Mn+2].[Mn+2]`, the GI50 was 10.9 µM in experiment [1]; 23.3 µM in [2]; 21 µM in experiment [3]; 19.9 µM in experiment [4]; 20.3 µM in [5]; 16.1 µM in experiment [6]. Moreover, the GI50 in [7] is 29.3 µM; in experiment [8], 14.5 µM; in experiment [9], 18.1 µM; in experiment [10] it was 20.9 µM. For the same compound, the TGI is 25.6 µM in experiment [1]; greater than 100 µM in experiment [2]; 42 µM in [3]; 54 µM in [4]; 66.1 µM in experiment [5]; 47.8 µM in [6]. The TGI turned out to be 81 µM in experiment [7], 50.4 µM in experiment [8], 49.5 µM in experiment [9] and 49 µM in experiment [10].
Take `CC(=O)OC1(C#N)CC2OC1C1N=NN(C(=O)OC(C)(C)C)C21` (stereo not given): the TGI in [1] was greater than 100 µM; in [2] it was greater than 100 µM; in experiment [3], greater than 100 µM; in experiment [4], greater than 31.6 µM; in experiment [5], greater than 100 µM; in experiment [6], greater than 31.6 µM. For the same compound, the TGI in [7], in experiment [8], in experiment [9] and in experiment [10] was greater than 100 µM in each case.
For `CC(C)(C)C1CCC(=O)C(C(O)CC2CC(=O)N(c3ccccc3)C(=O)C2)C1` (stereo not given), the TGI in [1], in [2], in experiment [3], in experiment [4], in [5] and in experiment [6] was greater than 100 µM each time. Moreover, the TGI in [7], in experiment [8], in experiment [9] and in experiment [10] was greater than 100 µM throughout.
As for `COc1c(Cl)[c]([Hg][O]C(C)=O)c(NCC(C)=O)c(OC)[c]1[Hg][O]C(C)=O`, the GI50 in experiment [1] is 22 µM; in experiment [2] it was 27.2 µM; in experiment [3], 22.3 µM; in experiment [4] it was 2.28 µM; in experiment [5], 17.1 µM; in experiment [6] it was 20 µM. Moreover, the GI50 in [7] was 13.6 µM; in [8] it was 15 µM; in experiment [9], 20.2 µM; in experiment [10] it was 20.8 µM. The TGI in [1] is 54.5 µM; in [2] it was 65.2 µM; in experiment [3] it was 37.3 µM; in [4] it was 6.8 µM; in [5] it was 48.5 µM; in experiment [6] it was 79.7 µM. Further, the TGI came to 32.4 µM in [7], 38.8 µM in experiment [8], 45.2 µM in experiment [9] and 36.3 µM in experiment [10].
With `CC(C)C1NC(=O)[C@H](C)OC(=O)[C@@H](C(C)C)NC(=O)[C@@H](C)OC(=O)C(C(C)C)NC(=O)[C@H](C)OC1=O` (stereo not given in full), the TGI in [1] was greater than 94.8 µM; in experiment [2] it was greater than 100 µM; in experiment [3], greater than 100 µM; in experiment [4], greater than 100 µM; in [5] it was greater than 100 µM; in experiment [6], greater than 100 µM. Also, the TGI was greater than 100 µM in experiment [7], greater than 68.8 µM in [8], greater than 100 µM in [9] and greater than 100 µM in [10].
On to `COCC(=O)NC/C=C/c1ccc2ncnc(Nc3ccc(Oc4ccc(C)nc4)c(C)c3)c2c1`, for which the GI50 was 6 µM in experiment [1]; 4.16 µM in [2]; 22.4 µM in experiment [3]; 6.48 µM in [4]; 13.8 µM in experiment [5]; 4.83 µM in [6]. The GI50 is 15.9 µM in experiment [7], 8.75 µM in [8], 12.5 µM in experiment [9] and 12 µM in experiment [10]. The TGI in [1] is 25.6 µM; in experiment [2], 48.7 µM; in [3], 71 µM; in experiment [4], 36.3 µM; in experiment [5], 53.8 µM; in [6] it was 31.1 µM. Further, the TGI in experiment [7] was determined as 92.4 µM; in [8], 36.1 µM; in experiment [9] it was 38.1 µM; in [10], 35.7 µM.
